Data as given in ChEMBL document CHEMBL4814071, “Synthesis and antibacterial study of cell-penetrating peptide conjugated trifluoroacetyl and thioacetyl lysine modified peptides” (Eur J Med Chem, 2021).
Where a name gives a salt, the structure may show the parent alone. Activity calls are given as the source filed them. No cut-off for these calls is given here. Where a SMILES comes first, the peptide text is derived from it. The star is where a group is joined. Tfa = O=C(C(F)(F)F)*

Tests used:
Staphylococcus aureus [1] = assay: Synergistic antibacterial activity against Staphylococcus aureus assessed as fractional inhibitory concentration index incubated for 24 hrs in presence of streptomycin; assay type: functional
Lipid bilayer [2] = assay: Binding affinity to bacterial inner membrane mimic POPE/POPG (3:1) LUVs assessed as increase in intensity by one-dimensional 19F NMR based analysis
Lipid bilayer [3] = assay: Binding affinity to mammalian membrane mimic DOPC/40% cholesterol assessed as calcein leakage at 20 uM by fluorescence based assay; assay type: ADME
Pseudomonas aeruginosa [4] = assay: Potentiation of polymyxin B-induced antibacterial activity against Pseudomonas aeruginosa assessed as polymyxin B MIC incubated for 24 hrs by microplate reader method; assay type: functional
Staphylococcus aureus [5] = assay: Potentiation of streptomycin-induced antibacterial activity against Staphylococcus aureus assessed as streptomycin MIC incubated for 24 hrs by microplate reader method; assay type: functional
Escherichia coli [6] = assay: Potentiation of polymyxin B-induced antibacterial activity against Escherichia coli assessed as polymyxin B MIC incubated for 24 hrs by microplate reader method; assay type: functional
[7] = Induction of yeast killing at 50 uM incubated for 72 hrs in presence of Ura3 and absence of FOA by absorbance based analysis; conditions: saccharomyces cerevisiae
[8] = molecular target: NAD-dependent histone deacetylase SIR2 (Saccharomyces cerevisiae S288c) (UniProt P06700); assay: Inhibition of yeast sirtuin2-mediated Ura3 transcriptional silencing at telomeric locus assessed as yeast killing at 50 uM incubated for 72 hrs in presence of FOA by absorbance based analysis
Escherichia coli [9] = assay: Antibacterial activity against Escherichia coli assessed as reduction in microbial growth after 24 hrs in presence of polymyxin B by microplate reader method; assay type: functional
Staphylococcus aureus [10] = assay: Antibacterial activity against Staphylococcus aureus assessed as reduction in microbial growth after 24 hrs in presence of streptomycin by microplate reader method; assay type: functional
Staphylococcus aureus [11] = assay: Antibacterial activity against Staphylococcus aureus assessed as reduction in microbial growth after 24 hrs by microplate reader method; assay type: functional
Escherichia coli [12] = assay: Antibacterial activity against Escherichia coli assessed as reduction in microbial growth after 24 hrs by microplate reader method; assay type: functional
Pseudomonas aeruginosa [13] = assay: Antibacterial activity against Pseudomonas aeruginosa assessed as reduction in microbial growth after 24 hrs by microplate reader method; assay type: functional
Staphylococcus aureus [14] = assay: Antibiofilm activity against Staphylococcus aureus assessed as biofilm eradication incubated for 24 hrs by crystal violet staining assay; assay type: functional
Escherichia coli [15] = assay: Antibiofilm activity against Escherichia coli assessed as biofilm eradication incubated for 24 hrs by crystal violet staining assay; assay type: functional
Staphylococcus aureus [16] = assay: Antibiofilm activity against Staphylococcus aureus assessed as inhibition of biofilm formation incubated for 48 hrs by crystal violet staining assay; assay type: functional
Escherichia coli [17] = assay: Antibiofilm activity against Escherichia coli assessed as as inhibition of biofilm formation incubated for 48 hrs by crystal violet staining assay; assay type: functional
Cell membrane [18] = assay: Disruption of membrane integrity in Escherichia coli at 2 times MIC measured after 20 mins by SEM analysis
Cell membrane [19] = assay: Disruption of membrane integrity in Staphylococcus aureus at 2 times MIC measured after 20 mins by SEM analysis
Escherichia coli [20] = assay: Synergistic antibacterial activity against Escherichia coli assessed as fractional inhibitory concentration index incubated for 24 hrs in presence of Polymyxin B; assay type: functional
Pseudomonas aeruginosa [21] = assay: Synergistic antibacterial activity against Pseudomonas aeruginosa assessed as fractional inhibitory concentration index incubated for 24 hrs in presence of Polymyxin B; assay type: functional
Lipid bilayer [22] = assay: Binding affinity to bacterial inner membrane mimic DOPE/DOPG (3:1) large unilamellar vesicles assessed as calcein leakage at 20 uM by fluorescence based assay
[23] = Hemolytic activity against mouse RBC at 1000 uM measured after 1 hr by microplate reader analysis; assay type: cell-based, Erythrocyte; conditions: mouse red blood cells (erythrocytes), read-out: Activity
HeLa = assay: Cytotoxicity against human HeLa cells assessed as reduction in cell viability incubated for 48 hrs by MTT assay; assay type: cell-based
BE(2)-C = assay: Cytotoxicity against human BE(2)-C cells assessed as reduction in cell viability incubated for 48 hrs by MTT assay; assay type: cell-based
Staphylococcus aureus [24] = assay: Antibiofilm activity against Staphylococcus aureus assessed as biofilm eradication at 2XMBEC incubated for 12 hrs by SYTO9/PI staining based microscopic analysis; assay type: functional, organism-based
Escherichia coli [25] = assay: Antibiofilm activity against Escherichia coli assessed as biofilm eradication at 2XMBEC incubated for 12 hrs by SYTO9/PI staining based microscopic analysis; assay type: functional, organism-based
[26] = Inhibition of transcriptional machinery using Puc19-lacCONS plasmid DNA and Escherichia coli RNA polymerase-sigma70 holoenzyme at 40 uM incubated for 35 mins followed by NTP addition for 30 mins by spectrofluorometer analysis; assay type: functional; conditions: time 65.0 min
Pseudomonas aeruginosa [27] = assay: Antibacterial activity against Pseudomonas aeruginosa assessed as reduction in microbial growth after 24 hrs in presence of polymyxin B by microplate reader method; assay type: functional
Staphylococcus aureus [28] = assay: Potentiation of streptomycin-induced antibacterial activity against Staphylococcus aureus assessed as fold change in streptomycin MIC incubated for 24 hrs by microplate reader method; assay type: functional
Cell membrane [29] = assay: Disruption of membrane integrity in Escherichia coli at 2 times MIC by TEM analysis
Lipid bilayer [30] = assay: Binding affinity to bacterial inner membrane mimic DOPE/DOPG (3:1) large unilamellar vesicles assessed as calcein leakage at 2.5 uM by fluorescence based assay
Cell membrane [31] = assay: Disruption of membrane integrity in Staphylococcus aureus at 2 times MIC by TEM analysis
Cell membrane [32] = assay: Disruption of membrane integrity in Escherichia coli assessed as cellular leakage at 2 times MIC by TEM analysis
[33] = Inhibition of transcriptional machinery using Puc19-lacCONS plasmid DNA and Escherichia coli RNA polymerase-sigma70 holoenzyme at 10 uM incubated for 35 mins followed by NTP addition for 30 mins by spectrofluorometer analysis; assay type: functional; conditions: time 65.0 min

Sequence of NAD-dependent histone deacetylase SIR2 (Saccharomyces cerevisiae S288c) (P06700 whole entry): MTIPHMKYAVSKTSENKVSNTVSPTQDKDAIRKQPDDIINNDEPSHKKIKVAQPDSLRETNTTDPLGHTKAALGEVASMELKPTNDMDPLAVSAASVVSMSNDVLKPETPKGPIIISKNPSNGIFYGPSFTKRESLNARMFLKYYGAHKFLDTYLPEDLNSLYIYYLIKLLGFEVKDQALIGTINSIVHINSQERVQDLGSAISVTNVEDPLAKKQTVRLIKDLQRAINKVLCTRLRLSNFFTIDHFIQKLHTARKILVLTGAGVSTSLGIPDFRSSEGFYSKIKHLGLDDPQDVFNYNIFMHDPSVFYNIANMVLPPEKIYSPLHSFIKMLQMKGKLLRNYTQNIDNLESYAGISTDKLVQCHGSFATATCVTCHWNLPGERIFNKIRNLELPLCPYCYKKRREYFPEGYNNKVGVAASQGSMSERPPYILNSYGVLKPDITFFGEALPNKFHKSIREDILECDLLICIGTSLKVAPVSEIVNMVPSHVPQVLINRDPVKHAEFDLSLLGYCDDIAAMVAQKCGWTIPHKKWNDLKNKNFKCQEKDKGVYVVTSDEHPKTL

SMILES	fractional inhibitory concentration index (FICI) (Staphylococcus aureus [1])	Activity (Lipid bilayer [2])	Activity (Lipid bilayer [3])	MIC (Pseudomonas aeruginosa [4])	MIC (Staphylococcus aureus [5])	MIC (Escherichia coli [6])	Activity [7]	inhibition [8]	MIC (Escherichia coli [9])	MIC (Staphylococcus aureus [10])	MIC (Staphylococcus aureus [11])	MIC (Escherichia coli [12])	MIC (Pseudomonas aeruginosa [13])	MBEC (Staphylococcus aureus [14])	MBEC (Escherichia coli [15])	MBIC (Staphylococcus aureus [16])	MBIC (Escherichia coli [17])	Activity (Cell membrane [18])	Activity (Cell membrane [19])	fractional inhibitory concentration index (FICI) (Escherichia coli [20])	other results
CC(=O)N[C@@H](CCCCN)C(=O)NCC(=O)N[C@@H](CC(C)C)C(=O)N[C@@H](CCCNC(=N)N)C(=O)N[C@@H](CCCCNC(=O)C(F)(F)F)C(=O)N[C@@H](Cc1ccccc1)C(=O)NCC(=O)N[C@@H](C)C(=O)N[C@@H](CCCCN)C(=O)N[C@@H](CCCNC(=N)N)C(=O)N[C@@H](Cc1cnc[nH]1)C(=O)N[C@@H](CCCNC(=N)N)C(=O)N[C@@H](CS)C(N)=O (Ac-KGLRK(Tfa)FGAKRHRC-NH2)	0.19	Active	< 20%	0.1 µM	0.38 µM	0.05 µM	Toxic	Active	15.6 µM	0.31 µM	1.5 µM	125 µM	> 250 µM	12.5 µM	inactive	6.3 µM	inactive	inactive	inactive	0.36	fractional inhibitory concentration index (FICI) (Pseudomonas aeruginosa [21]): 0.36; Activity (Lipid bilayer [22]): 70%; hemolysis at 1 h, 1000 µM [23]: < 5%; IC50 (HeLa): 94.6 µM; IC50 (BE(2)-C): 78 µM; Activity (Staphylococcus aureus [24]): Active; Activity (Escherichia coli [25]): Active; inhibition [26]: Active; MIC (Pseudomonas aeruginosa [27]): 25 µM; fold change (FC) (Staphylococcus aureus [28]): 6
CC(=O)N[C@@H](Cc1ccc(O)cc1)C(=O)NCC(=O)N[C@@H](CCCNC(=N)N)C(=O)N[C@@H](CCCCN)C(=O)N[C@@H](CCCCN)C(=O)N[C@@H](CCCNC(=N)N)C(=O)N[C@@H](CCCNC(=N)N)C(=O)N[C@@H](CCC(N)=O)C(=O)N[C@@H](CCCNC(=N)N)C(=O)N[C@@H](CCCNC(=N)N)C(=O)N[C@@H](CCCNC(=N)N)C(=O)NCC(=O)NCC(=O)NCC(=O)N[C@@H](CCCCN)C(=O)NCC(=O)N[C@@H](CC(C)C)C(=O)N[C@@H](CCCNC(=N)N)C(=O)N[C@@H](CCCCNC(=O)C(F)(F)F)C(=O)N[C@@H](Cc1ccccc1)C(=O)NCC(=O)N[C@@H](C)C(=O)N[C@@H](CCCCN)C(=O)N[C@@H](CCCNC(=N)N)C(=O)N[C@@H](Cc1cnc[nH]1)C(=O)N[C@@H](CCCNC(=N)N)C(=O)N[C@@H](CS)C(=O)O (Ac-YGRKKRRQRRRGGGKGLRK(Tfa)FGAKRHRC-OH)	0.22	Active	< 20%	0.05 µM	0.38 µM	0.1 µM	Toxic	Active	0.63 µM	0.05 µM	0.2 µM	1.5 µM	25 µM	3.2 µM	62.5 µM	0.8 µM	15.6 µM	Active	Active	0.73	Activity (Cell membrane [29]): Active; fractional inhibitory concentration index (FICI) (Pseudomonas aeruginosa [21]): 0.42; Activity (Lipid bilayer [30]): 90%; Activity (Lipid bilayer [22]): Active; hemolysis at 1 h, 1000 µM [23]: < 5%; IC50 (HeLa): 20.2 µM; IC50 (BE(2)-C): 17.4 µM; Activity (Staphylococcus aureus [24]): Active; Activity (Escherichia coli [25]): Active; Activity (Cell membrane [31]): Active; Activity (Cell membrane [32]): Active; inhibition [33]: 100%; MIC (Pseudomonas aeruginosa [27]): 12.5 µM; fold change (FC) (Staphylococcus aureus [28]): 6
